Numbered stars: 1 amine (or outer) side, 2 acyl side, 3 side chain; on linkers, the order of the positions; unused ones are H or OH. Square brackets hold non-standard residues; d marks the D form. Side chains are listed from the residue outwards. Peptide text beside a SMILES is read from it. * marks the point of attachment. C20 diacid = O=C(O)CCCCCCCCCCCCCCCCCCC(=O)*; C18 diacid = O=C(O)CCCCCCCCCCCCCCCCC(=O)*; αMePhe(2-F) = C[C@](N)(Cc1ccccc1F)C(=O)O; γGlu = O=C(O)[C@H](CCC(=O)[*:2])N[*:1]; Desaminohistidyl = O=C(CCc1c[nH]cn1)*; 4Pal = N[C@@H](Cc1ccncc1)C(=O)O; αMeL = CC(C)C[C@](C)(N)C(=O)O; AEEA = NCCOCCOCC(=O)O; Aib = CC(C)(N)C(=O)O
Tests used:
human Gcg receptor = biological target: T1, human Gcg receptor (Homo sapiens, UniProt P47871); assay: [125I]-Glucagon binding (SPA), human Gcg receptor; details: read-out: hGLcgR Ki, nM (SEM, n)
T1 construct: expressed in transfected cells; crude membranes
How it was run: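 Crude membranes from cells expressing the receptor, prepared by hypotonic lysis in 50 mM Tris HCl pH 7.5 with protease inhibitors, homogenization and differential centrifugation, were used in a WGA-bead SPA. Binding buffer: 25 mM HEPES pH 7.4, 2.5 mM CaCl2, 1 mM MgCl2, bacitracin, Tween-20.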

human GIP receptor = biological target: T2, human GIP receptor (Homo sapiens, UniProt P48546); assay: [125I]-GIP binding (SPA), human GIP receptor; details: read-out: hGIPR Ki, nM (SEM, n)
T2 construct: expressed in transfected cells; crude membranes
T2 sequence (P48546 22-466): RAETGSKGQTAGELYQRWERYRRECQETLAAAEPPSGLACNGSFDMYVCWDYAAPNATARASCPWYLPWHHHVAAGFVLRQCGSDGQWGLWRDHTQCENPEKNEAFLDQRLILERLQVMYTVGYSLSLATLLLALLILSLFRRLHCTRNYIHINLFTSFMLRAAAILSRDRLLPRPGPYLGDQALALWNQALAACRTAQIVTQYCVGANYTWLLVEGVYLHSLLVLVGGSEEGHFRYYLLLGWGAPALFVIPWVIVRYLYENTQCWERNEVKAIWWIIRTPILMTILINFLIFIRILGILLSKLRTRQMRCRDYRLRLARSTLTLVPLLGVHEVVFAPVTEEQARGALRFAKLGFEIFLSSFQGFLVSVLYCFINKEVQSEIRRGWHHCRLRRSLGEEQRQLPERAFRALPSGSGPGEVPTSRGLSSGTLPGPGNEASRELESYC

[1] = biological target: human GLP-1 receptor (GLP-1R) (Homo sapiens, UniProt P43220); assay: cAMP pharmacological functional assay in presence of casein, hGLP-1R; type: cell-based; details: HEK293 cells expressing hGLP-1R, 0.1% Casein, geometric mean; read-out: hGLP1R cAMP Rel EC50 nM (SEM, n)
[2] = biological target: T3, gastric inhibitory peptide receptor (GIPR) (Homo sapiens, UniProt P48546); assay: cAMP pharmacological functional assay in presence of casein, hGIPR; type: cell-based; details: HEK293 cells expressing hGIPR, 0.1% Casein, geometric mean; read-out: hGIPR cAMP Rel EC50 nM (SEM, n)
T3 sequence (P48546 22-466): T2 sequence (P48546 22-466)

human GLP-1R = human GLP-1R (Homo sapiens, UniProt P43220); assay: [125I]-GLP-1 binding (SPA), human GLP-1 receptor; design: expressed in transfected cells; crude membranes; details: read-out: hGLP1R Ki, (nM) (SEM, n)
How it was run: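 Frozen cell pellets are lysed on ice in hypotonic Tris buffer, pH 7.5, homogenized, and centrifuged to a membrane pellet resuspended at about 1 to 3 mg/mL. Binding is then measured in HEPES-based buffer at pH 7.4, and curves are fitted to give IC50 and Ki.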

T1 sequence (P47871 26-477): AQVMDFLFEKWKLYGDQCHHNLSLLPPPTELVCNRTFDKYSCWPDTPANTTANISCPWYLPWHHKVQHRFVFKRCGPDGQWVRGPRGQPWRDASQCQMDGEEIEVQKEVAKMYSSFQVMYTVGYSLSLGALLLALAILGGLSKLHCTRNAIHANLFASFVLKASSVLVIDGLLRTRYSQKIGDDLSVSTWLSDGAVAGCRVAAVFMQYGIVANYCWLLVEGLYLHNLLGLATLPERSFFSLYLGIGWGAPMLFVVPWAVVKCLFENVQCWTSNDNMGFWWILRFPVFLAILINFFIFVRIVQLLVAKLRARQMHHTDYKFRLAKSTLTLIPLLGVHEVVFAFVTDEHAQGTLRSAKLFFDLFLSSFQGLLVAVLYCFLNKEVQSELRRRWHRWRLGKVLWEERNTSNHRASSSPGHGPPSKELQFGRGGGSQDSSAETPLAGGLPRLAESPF
Chain of human GLP-1R (P43220 24-463): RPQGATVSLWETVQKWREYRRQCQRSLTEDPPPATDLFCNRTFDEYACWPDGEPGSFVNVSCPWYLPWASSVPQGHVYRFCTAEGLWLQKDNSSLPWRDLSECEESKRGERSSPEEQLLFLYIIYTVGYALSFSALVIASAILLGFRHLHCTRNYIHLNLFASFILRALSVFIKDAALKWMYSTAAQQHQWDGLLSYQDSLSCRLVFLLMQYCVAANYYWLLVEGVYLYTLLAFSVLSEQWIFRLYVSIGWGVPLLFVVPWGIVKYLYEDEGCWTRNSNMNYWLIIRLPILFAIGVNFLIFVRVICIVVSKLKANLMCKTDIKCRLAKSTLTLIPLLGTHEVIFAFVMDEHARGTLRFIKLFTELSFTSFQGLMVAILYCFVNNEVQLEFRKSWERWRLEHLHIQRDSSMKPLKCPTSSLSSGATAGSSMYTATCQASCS
Chain of human GLP-1 receptor (GLP-1R) (P43220 24-463): as above

| SMILES | Ki (human Gcg receptor) [nM] | Ki (human GIP receptor) [nM] | EC50 [1] [nM] | EC50 [2] [nM] | Ki (human GLP-1R) [nM] |
| --- | --- | --- | --- | --- | --- |
| CC[C@H](C)[C@H](NC(=O)[C@H](CC(C)C)NC(=O)[C@H](Cc1ccc(O)cc1)NC(=O)[C@H](CCC(=O)O)NC(=O)[C@@H](NC(=O)[C@H](Cc1ccccc1)NC(=O)[C@H](C)NC(=O)C(C)(C)NC(=O)[C@H](CCC(N)=O)NC(=O)[C@H](C)NC(=O)[C@H](CCCCNC(=O)COCCOCCNC(=O)COCCOCCNC(=O)CC[C@H](NC(=O)CCCCCCCCCCCCCCCCCCC(=O)O)C(=O)O)NC(=O)[C@H](CCCCN)NC(=O)[C@H](CC(=O)O)NC(=O)[C@H](CC(C)C)NC(=O)[C@H](CC(C)C)NC(=O)[C@@H](NC(=O)[C@H](CO)NC(=O)[C@H](Cc1ccc(O)cc1)NC(=O)[C@H](CC(=O)O)NC(=O)[C@H](CO)NC(=O)[C@@H](NC(=O)[C@H](Cc1ccccc1)NC(=O)[C@@H](NC(=O)CNC(=O)[C@H](CCC(=O)O)NC(=O)C(C)(C)NC(=O)CCc1c[nH]cn1)[C@@H](C)O)[C@@H](C)O)[C@@H](C)CC)[C@@H](C)CC)C(=O)N[C@@H](CCC(=O)O)C(=O)NCC(=O)NCC(=O)N1CCC[C@H]1C(=O)N[C@@H](CO)C(=O)N[C@@H](CO)C(=O)NCC(=O)N[C@@H](C)C(=O)N1CCC[C@H]1C(=O)N1CCC[C@H]1C(=O)N1CCC[C@H]1C(=O)N[C@@H](CO)C(N)=O [Example 106] (Desaminohistidyl-[Aib]EGTFTSDYSILLDKK([AEEA-AEEA-γGlu-C20 diacid])AQ[Aib]AFIEYLIEGGPSSGAPPPS-NH2) | 515 | 0.179 | 0.0413 | 6.54 | 1.2 |
| CC[C@H](C)[C@H](NC(=O)[C@H](CC(C)C)NC(=O)[C@H](Cc1ccc(O)cc1)NC(=O)[C@@H](CCC(=O)O)NC(=O)[C@@H](NC(=O)[C@H](Cc1ccccc1)NC(=O)[C@H](CCC(=O)O)NC(=O)C(C)(C)NC(=O)[C@H](CCC(N)=O)NC(=O)[C@H](C)NC(=O)[C@H](CCCCNC(=O)COCCOCCNC(=O)COCCOCCNC(=O)CCCCCCCCCCCCCCCCC(=O)O)NC(=O)[C@H](CCC(=O)O)NC(=O)[C@H](CC(=O)O)NC(=O)[C@H](CC(C)C)NC(=O)[C@](C)(CC(C)C)NC(=O)[C@@H](NC(=O)[C@H](CO)NC(=O)[C@H](Cc1ccncc1)NC(=O)[C@H](CC(=O)O)NC(=O)[C@H](CO)NC(=O)[C@@H](NC(=O)[C@](C)(Cc1ccccc1F)NC(=O)[C@@H](NC(=O)CNC(=O)[C@H](CCC(=O)O)NC(=O)C(C)(C)NC(=O)[C@@H](N)Cc1ccc(O)cc1)[C@@H](C)O)[C@@H](C)O)[C@@H](C)CC)[C@@H](C)CC)C(=O)N[C@@H](CCC(=O)O)C(=O)NCC(=O)NCC(=O)N1CCC[C@H]1C(=O)N[C@@H](CO)C(=O)N[C@@H](CO)C(=O)NCC(=O)N[C@@H](C)C(=O)N1CCC[C@H]1C(=O)N1CCC[C@H]1C(=O)N1CCC[C@H]1C(=O)N[C@@H](CO)C(N)=O [Example 205] (H-Y[Aib]EGT[αMePhe(2-F)]TSD[4Pal]SI[αMeL]LDEK([AEEA-AEEA-C18 diacid])AQ[Aib]EFI[dE]YLIEGGPSSGAPPPS-NH2; N-terminus assumed) | 438 | 0.0367 | 0.0261 | 0.0281 | 3.05 |
| CC[C@H](C)[C@H](NC(=O)[C@H](CC(C)C)NC(=O)[C@H](Cc1ccc(O)cc1)NC(=O)[C@H](CCC(=O)O)NC(=O)[C@@H](NC(=O)[C@](C)(Cc1ccccc1)NC(=O)[C@H](C)NC(=O)C(C)(C)NC(=O)[C@H](CCC(N)=O)NC(=O)[C@H](C)NC(=O)[C@H](CCCCNC(=O)COCCOCCNC(=O)COCCOCCNC(=O)CC[C@H](NC(=O)CCCCCCCCCCCCCCCCCCC(=O)O)C(=O)O)NC(=O)[C@H](CCCCN)NC(=O)[C@H](CC(=O)O)NC(=O)[C@H](CC(C)C)NC(=O)[C@](C)(CC(C)C)NC(=O)[C@@H](NC(=O)[C@H](CO)NC(=O)[C@H](Cc1ccc(O)cc1)NC(=O)[C@H](CC(=O)O)NC(=O)[C@H](CO)NC(=O)[C@@H](NC(=O)[C@](C)(Cc1ccccc1)NC(=O)[C@@H](NC(=O)CNC(=O)[C@H](CCC(=O)O)NC(=O)C(C)(C)NC(=O)[C@@H](N)Cc1ccc(O)cc1)[C@@H](C)O)[C@@H](C)O)[C@@H](C)CC)[C@@H](C)CC)C(=O)N[C@@H](CCC(=O)O)C(=O)NCC(=O)NCC(=O)N1CCC[C@H]1C(=O)N[C@@H](CO)C(=O)N[C@@H](CO)C(=O)NCC(=O)N[C@@H](C)C(=O)N1CCC[C@H]1C(=O)N1CCC[C@H]1C(=O)N1CCC[C@H]1C(=O)N[C@@H](CO)C(N)=O [Example 76] | 14.4 | 0.0659 | 0.125 | 0.124 | 2.64 |
